# Data reported in patent publication US8530172B2, “Methods and materials for assessing enzyme-nucleic acid complexes” (Mayo Foundation for Medical Education and Research, priority 2010, dated 2013).
# Tests used:
# [1] = tested on: topo I-DNA covalent complexes; assay: Flow cytometry, P388/CPT cells (lack detectable topo I); type: cell-based, mouse; conditions: 2 μM TPT
# Description: (§1) A549 and K562 cells were stained using a modified protocol of a protocol described elsewhere (Muslimovic et al., Nat. Protoc., 3:1187-1193 (2008)). After 10^6 cells were treated for 1 hour with TPT in medium B, samples were centrifuged at 300 g for 5 minutes. Cells were then partially lysed for 1 minute in 100 μL extraction buffer, which consisted of 25 mM Tris-HCl (pH 7.5 at 20-22° C.), 1% (w/v) Triton X-100, 1 mM EDTA, 0.01% (w/v) BSA, and 0.2% (w/v) paraformaldehyde then fixed for 10 minutes at 20-22° C. by addition of 1 mL 2% (w/v) paraformaldehyde in PBS. Nuclei were pelleted and incubated for 60 minutes in 100 μL blocking buffer with primary antibody (1 μg/mL for A549 and P388 cells; and 5 μg/mL for K562 cells). Nuclei were washed by addition of 2 mL PBS, pelleted, and incubated for 30 minutes in 100 μL blocking buffer with 1 μg/mL Alexa Fluor 647-conjugated goat anti-mouse IgG (Invitrogen). Nuclei were washed by addition of 2 mL PBS, pelleted, and immediately analyzed on a FACSCanto II flow cytometer (BD Biosciences; San Jose, Calif.) on the APC channel (excitation: 633 nm; emission: 660/20 nm).
# [2] = target: T1, topo I-DNA covalent complexes (Mus musculus, UniProt Q04750); assay: Flow cytometry, wild-type P388 cells; type: cell-based; conditions: 2 μM TPT
# T1 construct: endogenous in cells; host or cells: P388 (wild type)
# T1 sequence (Q04750 1-767): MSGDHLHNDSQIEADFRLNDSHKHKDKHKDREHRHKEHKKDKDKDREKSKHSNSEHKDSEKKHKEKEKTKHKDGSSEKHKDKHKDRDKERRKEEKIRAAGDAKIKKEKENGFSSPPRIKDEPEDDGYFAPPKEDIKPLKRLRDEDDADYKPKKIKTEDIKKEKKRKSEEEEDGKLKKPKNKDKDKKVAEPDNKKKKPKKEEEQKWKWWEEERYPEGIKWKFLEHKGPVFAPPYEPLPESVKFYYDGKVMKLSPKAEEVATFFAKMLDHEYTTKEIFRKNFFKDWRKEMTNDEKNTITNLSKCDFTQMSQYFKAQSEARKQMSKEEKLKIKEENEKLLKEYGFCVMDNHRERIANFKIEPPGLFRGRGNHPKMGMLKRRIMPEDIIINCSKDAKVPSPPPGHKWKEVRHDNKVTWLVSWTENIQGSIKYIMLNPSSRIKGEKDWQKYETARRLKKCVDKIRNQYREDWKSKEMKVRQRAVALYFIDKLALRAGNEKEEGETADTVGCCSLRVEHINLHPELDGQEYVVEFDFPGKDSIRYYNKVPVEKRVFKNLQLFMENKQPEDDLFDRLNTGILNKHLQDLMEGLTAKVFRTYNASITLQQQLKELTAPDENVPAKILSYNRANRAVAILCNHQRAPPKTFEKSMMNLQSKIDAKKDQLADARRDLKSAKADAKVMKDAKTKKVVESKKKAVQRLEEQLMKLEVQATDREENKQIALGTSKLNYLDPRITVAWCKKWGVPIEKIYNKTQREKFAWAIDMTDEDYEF
# Description: as §1
# [3] = target: T2, topo I-DNA covalent complexes (Homo sapiens, UniProt P11387); assay: Immunofluorescence (confocal microscopy) in A549 cells; type: cell-based
# T2 construct: separate topo I-DNA covalent complexes from free topo I in A549 cell lysates; endogenous in cells; host or cells: A549
# T2 sequence (P11387 1-765): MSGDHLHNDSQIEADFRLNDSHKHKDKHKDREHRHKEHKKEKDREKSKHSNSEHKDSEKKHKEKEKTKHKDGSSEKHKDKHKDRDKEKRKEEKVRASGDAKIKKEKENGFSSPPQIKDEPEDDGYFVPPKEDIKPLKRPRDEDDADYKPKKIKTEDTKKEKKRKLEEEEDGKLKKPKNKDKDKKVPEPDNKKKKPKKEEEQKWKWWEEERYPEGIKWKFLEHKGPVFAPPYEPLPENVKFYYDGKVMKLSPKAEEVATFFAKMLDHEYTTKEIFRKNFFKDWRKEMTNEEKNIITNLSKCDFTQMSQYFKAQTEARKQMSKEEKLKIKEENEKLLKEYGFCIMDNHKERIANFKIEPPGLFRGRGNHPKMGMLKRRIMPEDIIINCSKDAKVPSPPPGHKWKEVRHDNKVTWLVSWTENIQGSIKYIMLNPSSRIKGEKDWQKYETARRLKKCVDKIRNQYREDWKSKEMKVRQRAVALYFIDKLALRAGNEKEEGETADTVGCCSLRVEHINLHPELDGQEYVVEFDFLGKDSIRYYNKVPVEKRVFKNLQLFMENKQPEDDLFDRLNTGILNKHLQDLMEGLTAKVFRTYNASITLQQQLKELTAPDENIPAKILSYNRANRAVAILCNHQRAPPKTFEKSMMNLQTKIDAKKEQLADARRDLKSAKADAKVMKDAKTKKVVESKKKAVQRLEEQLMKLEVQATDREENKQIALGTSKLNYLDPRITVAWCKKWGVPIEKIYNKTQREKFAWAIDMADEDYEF
# Description: Immunofluorescence studies in A549 cells were performed as described elsewhere (Segovis et al., J. Immunol., 182:6933-6942 (2009)) with several modifications. After cells grown on nitric acid-etched coverslips were treated for 1 hour with TPT in medium B, coverslips were fixed in 2% (w/v) paraformaldehyde in calcium- and magnesium-free Dulbecco's phosphate buffered saline (PBS) for 10 minutes at room temperature, washed with PBS, and permeabilized with 0.25% (v/v) Triton X-100 in PBS for 5 minutes. To denature DNA-protein crosslinks, the coverslips were incubated in 1% SDS for 5 minutes (Brown et al., Histochem. Cell Biol., 105:261-267 (1996)), washed three times with PBS, and incubated in a blocking buffer consisting of PBS, 1% (v/v) glycerol, 0.1% glycerol from cold water fish, 5% (v/v) normal goat serum, 0.1% (w/v) BSA, and 0.4% (w/v) sodium azide. Coverslips were incubated overnight in primary antibody, followed by staining with Alexa Fluor 488-, 568-, or 647-conjugated secondary antibody (Invitrogen) diluted at a ratio of 1:1000. α-TopoI cc antibody was used at 1.2 μg/mL, and α-Topo I human IgG (Topogen; Port Orange, Fla.) was used at 1:1000. […] Quantitation and image processing were performed using the Zeiss Zen software package and Adobe Photoshop CS3.
# [4] = target: T2, topo I-DNA covalent complexes; assay: In vivo complexing of enzyme (ICE) assay with immunoblotting, A549 cells; type: cell-based; conditions: 10 μM drug, 60 minutes
# Description: ICE assays were performed as described elsewhere (Subramanian et al., ICE Bioassay; DNA Topoisomerase Protocols: Volume II: Enzymology and Drugs, 2001, pp 137-147; and Gálvez-Peralta et al., Bioorganic & Medicinal Chemistry Letters, 19:4459-4462 (2009)). Briefly, A549 cells grown to 40-60% confluence in 100 mm tissue culture dishes were treated for 60 minutes with 0.1% (v/v) DMSO, 10 μM TPT, or 10 μM etoposide in serum-free RPMI containing 10 mM HEPES, pH 7.4 (medium B). At the end of the incubation, the medium was aspirated, and the cells were rapidly lysed in 1 mL lysis buffer consisting of 1% (w/v) sarkosyl, 10 mM Tris-HCl (pH 8.0 at 20-22° C.) and 1 mM EDTA. Lysate was layered on a cesium chloride gradient and ultracentrifuged at 125,000 g for 21 hours at 20° C. After centrifuge tubes were perforated at the bottom with a 23-gauge needle, 0.5 mL fractions were collected, assayed for the presence of DNA (detectable in fractions 1-4), and slot-blotted onto nitrocellulose membranes. Membranes were then blocked in 5% (w/v) milk in […] NaCl containing 10 mM Tris-HCl (pH 7.4 at 20-22° C.) for 2 hours and incubated in either C-21 anti-topo I IgM antibody (obtained from Y.-C. Cheng; Yale University; New Haven, Conn.) or the α-TopoI cc antibody (diluted to 1 μg/mL in blocking buffer). Western blotting was performed as described elsewhere (Kaufmann, Anal. Biochem., 296:283-286 (2001)).
# [5] = target: T2, topo I-DNA covalent complexes; assay: Band depletion assay, A549 cells (SDS-PAGE immunoblot and slot blot); type: cell-based; conditions: increasing TPT concentrations up to 100 μM, 60 minutes
# Description: Band depletion assays were performed as described elsewhere (Kaufmann and […], Methods Mol. Biol., 94:253-268 (1999)). A549 cells grown in 100 mm culture dishes to 40-60% confluence were treated with increasing concentrations of TPT in medium B for 60 minutes. After treatment, cells were immediately solubilized in 6 M guanidine hydrochloride containing 250 mM Tris-HCl (pH 8.5 at 20° C.), 10 mM EDTA, 1% (v/v) 2-mercaptoethanol, and 1 mM freshly added phenylmethylsulfonyl fluoride. After preparation, for electrophoresis as described elsewhere (Kaufmann et al., Blood, 89:2098-2104 (1997), aliquots containing […] of protein (determined by the bicinchoninic acid method (Smith et al., Anal. Biochem., 150:76-85 (1985)) were either slot blotted for immunoblotting with α-TopoI cc antibody or separated on SDS-polyacrylamide gels, eletrophoretically transferred to nitrocellulose, and probed with C-21 anti-Topo I or, as a loading control anti-Hsp90 mouse (obtained from D. O. Toft; Mayo Clinic; Rochester, Minn.).
shift in α-TopoI cc staining intensity [2],α-TopoI cc staining intensity (average number of foci per cell or maximal mean fluorescence) ([3]; TPT 1 hour),Compound,shift in α-TopoI cc staining intensity [1],non-nucleolar staining of topo I-DNA complexes (double staining) ([3]; TPT versus untreated),topo I-DNA covalent complexes in DNA fractions after drug exposure (α-TopoI cc blot) [4],topo I-DNA covalent complex signal (slot blot probed with α-TopoI cc) [5],"total topo I signal at 100 kDa (SDS-PAGE, immunoblot) [5]"
rightward shift was detectable,dose-dependent increase,"CC[C@@]1(O)C(=O)OCc2c1cc1n(c2=O)Cc2cc3c(CN(C)C)c(O)ccc3nc2-1 [TPT, Topotecan]",this shift was not observed,dramatic increase in non-nucleolar staining of topo I-DNA complexes,detected topo I that co-migrates with DNA,corresponding increase in signal for topo I-DNA covalent complexes,graduated decrease in the topo I signal at 100 kDa
,,COc1cc([C@@H]2c3cc4c(cc3[C@@H](O[C@@H]3O[C@@H]5CO[C@@H](C)O[C@H]5[C@H](O)[C@H]3O)[C@H]3COC(=O)[C@H]23)OCO4)cc(OC)c1O [etoposide],,,failed to detect,,
